Reference: patent US12428455B2, “Dominant negative CEBPB and CEBPD proteins and methods of use for decreasing viability of neoplastic cells” (The Trustees of Columbia University in the City of New York, priority 2018, dated 2025)

Tests used:
[1] = tested on: MDA-MB 231, HCT116, and A375 cells; assay: Peptide treatment after doxorubicin pre-treatment, cell number; type: cell-based; conditions: 100 nM, 24 hours
Description: Replicate cultures of MDA-MB 231, HCT116, and A375 cells were pretreated with 100 nM doxorubicin for 24 hours, and then treated with 1 μM, 3 μM, 10 μM, or 20 μM CP-dn-CEBPB and CP-dn-CEBPD peptides, maintained for 6 days, and then assessed for cell number. The bar graphs of FIGS. 31A (MDA-MB 231, CP-dn-CEBPB), 31C (MDA-MB 231, CP-dn-CEBPBD, 31E (HCT116, CP-dn-CEBPBD), 31G (HCT116, CP-dn-CEBPD), 31I (A375, CP-dn-CEBPBB), and 31K (A375, CP-dn-CEBPBD) show relative cell numbers for each condition as compared to untreated controls. The line graphs of FIGS. 31B (MDA-MB 231, CP-dn-CEBPB), 31D (MDA-MB 231, CP-dn-CEBPBD), 31F (HCT116, CP-dn-CEBPB), 31H (HCT116, CP-dn-CEBPD), 31J (A375, CP-dn-CEBPB), and 31L (A375, CP-dn-CEBPBD) show the response as normalized in each case so that 100 represents the relative number of surviving cells that received the indicated level of doxorubicin, but no peptide treatment.

[2] = tested on: paclitaxel-resistant T98G cells; assay: Cell number, paclitaxel-resistant T98G cells; type: cell-based; conditions: 6 days; 0 μM to 50 μM peptide or 0 nM to 50 nM paclitaxel
Description: Replicate cultures of T98G wild type cells and paclitaxel-resistant T98G cells were treated with 0 nM to 50 nM paclitaxel or 0 μM to 50 μM CP-dn-CEBPB or CP-dn-CEBPD peptides, maintained for 6 days, and then assessed for cell number. Paclitaxel resistant T98G cells were inhibited by both CP-dn-CEBPB (FIG. 28A) and CP-dn-CEBPD (FIG. 28B), but, as expected were not inhibited by paclitaxel (FIG. 28C). This establishes that CP-dn-CEBPB and CP-dn-CEBPD may be effective against chemotherapy-resistant cells.

Row | SMILES | effect of doxorubicin pre-treatment on growth of the cancer cells [1] | inhibition of paclitaxel-resistant T98G cells (cell number) [2]
1 | COc1cccc2c1C(=O)c1c(O)c3c(c(O)c1C2=O)C[C@@](O)(C(=O)CO)C[C@@H]3O[C@H]1C[C@H](N)[C@H](O)[C@H](C)O1 [doxorubicin, reference compound] | inhibited grown of the cancer cells | –
2 | CC(=O)O[C@H]1C(=O)[C@@]2(C)[C@H]([C@H](OC(=O)c3ccccc3)[C@]3(O)C[C@H](OC(=O)[C@H](O)[C@@H](NC(=O)c4ccccc4)c4ccccc4)C(C)=C1C3(C)C)[C@]1(OC(C)=O)CO[C@@H]1C[C@@H]2O [paclitaxel, reference compound] | – | not inhibited
